The test system of the test is UPEC strain UTI89. Kind of test: Microdilution bactericidal assay of recombinant antimicrobial peptides (CFU count, MIC). It is filed as cell-based, Escherichia coli. Particulars: for minimum inhibition concentration (MIC), lowest peptide concentration inhibiting growth of 90% of the inoculum: UTI89 10^5 CFU, 0.3125-10 µM peptide in 50 µl 0.1X PBS, 3 hours at 37°C, then plated overnight on LB, CFU versus untreated bacteria; for bactericidal activity toward UPEC in vitro (in words): UTI89, recombinant peptide, microdilution assay. As for the experimental part:
Recombinant mBD-3 was synthesized in E. coli (5987-BD, R&D Systems, Minneapolis, MN). Recombinant mBD-14 was synthesized as a mature peptide in E. coli and purified as described. Antimicrobial activity of recombinant peptides was evaluated by microdilution assay. Briefly, UTI89 bacteria (10^5 CFU) were incubated with 0.3125, 0.625, 1.25, 2.5, 5, or 10 µM of mBD-3 or mBD-14 in 50 µl 0.1X PBS buffer for 3 hours at 37°C, then plated overnight on LB at 37°C. Next, the number of CFU at each concentration of peptide was determined. Using untreated bacteria as baseline, the minimum inhibition concentration (MIC) was identified by the lowest peptide concentration inhibiting growth of 90% of the inoculum as described previously. Sensitivity of the UTI89 bacterial strain to killing by antimicrobial peptides was verified with the use of recombinant human RNase 7, yielding MIC of 0.2-0.4 µM, consistent with published data[24].

Turning to “mBD-3: Recombinant mBD-3 synthesized in E. coli (5987-BD, R&D Systems); protein encoded by Defb3 (KKINNPVSCLRKGGRCWNRCIGNTRQIGSCGVPFLKCCKRK; UniProt Q9WTL0 23-63, looked up)”, the “minimum inhibition concentration (MIC), lowest peptide concentration inhibiting growth of 90% of the inoculum” value was in the range of 1.25 to 2.5 µM and the “bactericidal activity toward UPEC in vitro (in words)” value is recorded as “dose-dependent bactericidal activity”.

As to “mBD-14: Recombinant mBD-14 synthesized as a mature peptide in E. coli and purified; protein encoded by Defb14 (FLPKTLRKFFCRIRGGRCAVLNCLGKEEQIGRCSNSGRKCCRKKK; UniProt Q7TNV9 23-67, looked up)”, the “bactericidal activity toward UPEC in vitro (in words)” value is recorded as “dose-dependent bactericidal activity”.

B1: RNase 7: Recombinant human RNase 7, used to verify sensitivity of UTI89 to killing by antimicrobial peptides (protein, UniProt Q9H1E1 29-156, looked up)
Ribonuclease 7: KPKGMTSSQWFKIQHMQPSPQACNSAMKNINKHTKRCKDLNTFLHEPFSSVAATCQTPKIACKNGDKNCHQSHGAVSLTMCKLTSGKHPNCRYKEKRQNKSYVVACKPPQKKDSQQFHLVPVHLDRVL
As for B1, the “minimum inhibition concentration (MIC), lowest peptide concentration inhibiting growth of 90% of the inoculum” value was 0.2 to 0.4 µM.
